The results in this text go back to patent publication US20230373985A1 (Origenis Gmbh, priority 2020, published 2023).

A word on the IC50: it is the concentration needed to halve the response being measured.

The target in experiment [1] is T1, wt human TYK2, catalytic site (Homo sapiens, UniProt P29597).
T1 construct: wt human TYK2, catalytic site; purchased SignalChem
T1 sequence (P29597 897-1176 limits assumed): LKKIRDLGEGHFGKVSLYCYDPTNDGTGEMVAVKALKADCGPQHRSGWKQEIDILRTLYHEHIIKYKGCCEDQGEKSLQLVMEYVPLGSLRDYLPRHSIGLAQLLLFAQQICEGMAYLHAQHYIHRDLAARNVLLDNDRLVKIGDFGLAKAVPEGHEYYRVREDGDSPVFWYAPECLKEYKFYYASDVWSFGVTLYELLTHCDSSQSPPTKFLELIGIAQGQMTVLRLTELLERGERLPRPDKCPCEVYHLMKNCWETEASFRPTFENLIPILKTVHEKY
The experiment can be described thus: HTRF KinEASE assay, TYK2. To be noted: 1 μM ATP; read-out: IC50, Activity Toward TYK2. Format: biochemical. The method in brief: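 Kinase reaction run at room temperature for at least 30 min: 2 nM TYK2 with 1 μM ATP, or 1 nM JAK2 with 100 μM ATP, each with 1 μM biotin-TK substrate. Phosphorylation detected by HTRF (60 min antibody/XL665) and evaluated from emission ratios.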
In general terms: In TR-FRET formats the signal depends on donor and acceptor labels being close together.

Experiment [2] addresses T2, wt human LRRK2, catalytic site (Homo sapiens, UniProt Q5S007).
T2 construct: 5 nM wt human LRRK2, catalytic site; purchased ThermoFisher
The experiment can be described thus: TR-FRET LanthaScreen Eu Kinase Binding Assay, LRRK2 wt. As to conditions: one range stated for wt and G2019, read-out: IC50, Activity Toward LRRK2(Wt). Here is the method: (§1) The basic protocol for TR-FRET LanthaScreen Eu Kinase Binding Assay inhibitor studies were performed as follows. LanthaScreen Kinase Binding Assays (ThermoFisher/USA) to evaluate inhibitors were performed by addition of 5 μL of test compound in corresponding DMSO dilutions/5 μl of kinase/antibody mixture, 5 μL of tracer into 384 well small volume plates. After incubation for 1 hour at room temperature, plates were read. Data analysis of emission ratios was according LanthaScreen Eu Kinase Binding Assay protocol.
(§2) Kinase and assay components were adjusted to final concentrations according to kit protocol. For LRRK2: 5 nM wt human LRRK2, catalytic site, or G2019S human LRRK2, catalytic site (ThermoFisher/USA), 2 nM Eu-Anti-GST Antibody, 10 nM Kinase Tracer 236 in 1× Kinase Buffer A. For NUAK1: 8 nM wt human NUAK1, full length (ThermoFisher/USA), 2 nM Eu-Anti-His Antibody, 5 nM Kinase Tracer 236 in 1× Kinase Buffer A.

Experiment [3] addresses T3, G2019S human LRRK2, catalytic site (Homo sapiens, UniProt Q5S007, G2019S).
T3 construct: G2019S human LRRK2, catalytic site; purchased ThermoFisher
Description: TR-FRET LanthaScreen Eu Kinase Binding Assay, LRRK2 G2019S. To be noted: LRRK2(G2019); one range stated for wt and G2019; read-out: IC50, Activity Toward LRRK2(G2019). Here is the method:
as §1, §2

Experiment [4] addresses T4, wt human JAK1, catalytic site (Homo sapiens, UniProt P23458).
T4 construct: wt human JAK1, catalytic site; purchased ThermoFisher
The experiment can be described thus: HTRF KinEASE assay, JAK1. It counts as biochemical. As to conditions: 2.5 μM ATP; read-out: IC50, Activity Toward JAK1. The method in brief:
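Compounds in DMSO dilution were mixed with kinase, biotin-TK substrate and ATP and reacted for ≥30 min at room temperature. Detection reagents (antibody, streptavidin-XL665) were read 60 min later as HTRF, with emission ratios analysed per KinEASE protocol.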

T3 sequence (Q5S007 970-2527 G2019S limits assumed): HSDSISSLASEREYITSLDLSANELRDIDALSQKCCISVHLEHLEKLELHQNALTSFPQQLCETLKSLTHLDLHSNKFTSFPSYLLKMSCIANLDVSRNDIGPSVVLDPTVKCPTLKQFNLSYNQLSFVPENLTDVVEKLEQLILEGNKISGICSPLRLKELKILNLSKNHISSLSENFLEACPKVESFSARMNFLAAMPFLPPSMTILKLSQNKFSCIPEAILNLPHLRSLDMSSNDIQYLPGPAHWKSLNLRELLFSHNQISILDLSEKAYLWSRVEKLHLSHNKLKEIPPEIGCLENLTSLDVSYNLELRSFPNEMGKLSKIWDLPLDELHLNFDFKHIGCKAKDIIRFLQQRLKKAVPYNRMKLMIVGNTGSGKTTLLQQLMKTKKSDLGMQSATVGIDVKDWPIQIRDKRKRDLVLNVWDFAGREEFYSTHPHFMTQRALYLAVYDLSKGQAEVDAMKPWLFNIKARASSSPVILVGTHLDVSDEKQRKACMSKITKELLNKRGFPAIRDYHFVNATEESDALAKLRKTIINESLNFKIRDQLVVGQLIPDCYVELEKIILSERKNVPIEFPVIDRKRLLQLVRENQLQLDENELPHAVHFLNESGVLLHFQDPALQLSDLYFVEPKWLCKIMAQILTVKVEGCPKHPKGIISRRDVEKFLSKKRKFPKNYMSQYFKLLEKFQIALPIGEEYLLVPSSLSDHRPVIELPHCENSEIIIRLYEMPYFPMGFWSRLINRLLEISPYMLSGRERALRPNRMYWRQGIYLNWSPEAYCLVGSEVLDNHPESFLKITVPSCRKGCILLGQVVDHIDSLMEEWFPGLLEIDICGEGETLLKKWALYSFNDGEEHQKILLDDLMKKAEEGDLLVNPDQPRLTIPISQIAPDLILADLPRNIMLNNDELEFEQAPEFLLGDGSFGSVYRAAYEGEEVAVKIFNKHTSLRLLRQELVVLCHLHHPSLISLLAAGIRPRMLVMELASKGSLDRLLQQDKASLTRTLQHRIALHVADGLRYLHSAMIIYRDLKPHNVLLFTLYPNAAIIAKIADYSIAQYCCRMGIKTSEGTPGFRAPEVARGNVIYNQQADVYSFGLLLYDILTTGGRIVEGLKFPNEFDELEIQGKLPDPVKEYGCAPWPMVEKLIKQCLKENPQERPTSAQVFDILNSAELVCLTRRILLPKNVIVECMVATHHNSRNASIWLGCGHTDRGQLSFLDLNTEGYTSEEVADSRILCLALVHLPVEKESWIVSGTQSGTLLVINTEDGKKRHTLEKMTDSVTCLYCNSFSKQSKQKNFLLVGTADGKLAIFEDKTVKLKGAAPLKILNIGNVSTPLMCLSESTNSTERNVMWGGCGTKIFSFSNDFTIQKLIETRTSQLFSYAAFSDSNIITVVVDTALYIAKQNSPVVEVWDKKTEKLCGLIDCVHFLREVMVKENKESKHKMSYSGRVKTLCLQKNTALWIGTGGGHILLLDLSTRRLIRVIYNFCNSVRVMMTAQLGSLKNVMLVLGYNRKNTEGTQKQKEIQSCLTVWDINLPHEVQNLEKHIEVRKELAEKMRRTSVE
T2 sequence (Q5S007 970-2527 limits assumed): as the sequence (Q5S007 970-2527 G2019S limits assumed) above, with S1050G counted along it
T4 sequence (P23458 875-1153 limits assumed): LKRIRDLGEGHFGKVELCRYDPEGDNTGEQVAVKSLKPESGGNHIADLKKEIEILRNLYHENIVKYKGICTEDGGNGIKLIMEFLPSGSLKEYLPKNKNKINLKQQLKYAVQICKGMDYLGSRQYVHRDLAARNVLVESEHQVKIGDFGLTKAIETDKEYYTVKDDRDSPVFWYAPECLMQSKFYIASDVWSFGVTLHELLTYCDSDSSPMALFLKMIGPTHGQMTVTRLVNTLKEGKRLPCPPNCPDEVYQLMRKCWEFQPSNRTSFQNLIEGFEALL

Consider `Cc1ccnc(Nc2cn(-c3c(F)cccc3F)nc2C(N)=O)c1` [compound 10, 1-(2,6-difluorophenyl)-4-((4-methylpyridin-2-yl)amino)-1H-pyrazole-3-carboxamide], for which the IC50 in experiment [1], in experiment [2] and in experiment [3] was 100 to 1000 nM throughout.

As to `NC(=O)c1nn(-c2c(F)cccc2F)cc1Nc1nc2ccccc2[nH]1` [compound 11, 4-((1H-benzo[d]imidazol-2-yl)amino)-1-(2,6-difluorophenyl)-1H-pyrazole-3-carboxamide], the IC50 in experiment [1], in experiment [2], in experiment [3] and in experiment [4] was 100 to 1000 nM in each case.

In the case of `NC(=O)c1nn(-c2c(F)cccc2F)cc1Nc1cccc(C(=O)N2CCOCC2)c1` [compound 18, 1-(2,6-difluorophenyl)-4-((3-(morpholine-4-carbonyl)phenyl)amino)-1H-pyrazole-3-carboxamide], the IC50 in experiment [1], in experiment [2], in experiment [3] and in experiment [4] was 100 to 1000 nM each time.

Consider `CC(C)(C)NC(=O)c1ccc(Nc2cn(-c3c(F)cccc3F)nc2C(N)=O)cn1` [compound 23, N-(tert-butyl)-5-((3-carbamoyl-1-(2,6-difluorophenyl)-1H-pyrazol-4-yl)amino)picolinamide], for which the IC50 in experiment [1], in experiment [2] and in experiment [3] was 100 to 1000 nM throughout.

As to `CC(C)(C)NC(=O)c1ccc(Nc2cn(-c3c(Cl)cccc3Cl)nc2C(N)=O)cc1` [compound 26, 4-((4-(tert-butylcarbamoyl)phenyl)amino)-1-(2,6-dichlorophenyl)-1H-pyrazole-3-carboxamide], the IC50 in experiment [1] lay in the range of 10 to 100 nM; in experiment [2], 100 to 1000 nM; in experiment [3], 100 to 1000 nM; in experiment [4] it was 10 to 100 nM.

In the case of `CCNC(=O)c1ccc(Nc2cn(-c3c(Cl)cccc3Cl)nc2C(N)=O)cc1` [compound 34, 1-(2,6-dichlorophenyl)-4-((4-(ethylcarbamoyl)phenyl)amino)-1H-pyrazole-3-carboxamide], the IC50 is 10 to 100 nM in experiment [1], 100 to 1000 nM in experiment [2], 100 to 1000 nM in experiment [3] and 10 to 100 nM in experiment [4].

On to `CC(C)(C)OC(=O)N1CCCC(NC(=O)c2ccc(Nc3cn(-c4c(F)cccc4Cl)nc3C(N)=O)cc2)C1` (centres unmarked) [compound 37, tert-butyl_3-(4-((3-carbamoyl-1-(2-chloro-6-fluorophenyl)-1H-pyrazol-4-yl)amino)benzamido)piperidine-1-carboxylate], for which the 50% inhibitory concentration (IC50) in experiment [1], in experiment [2], in experiment [3] and in experiment [4] was 100 to 1000 nM each time.

As to `CCNC(=O)c1ccc(Nc2cn(-c3c(F)cccc3Cl)nc2C(N)=O)cc1` [compound 40, 1-(2-chloro-6-fluorophenyl)-4-((4-(ethylcarbamoyl)phenyl)amino)-1H-pyrazole-3-carboxamide], the IC50 in experiment [1] lay within 10 to 100 nM; in experiment [2] it was 100 to 1000 nM; in experiment [3], 100 to 1000 nM; in experiment [4], 10 to 100 nM.

Consider `COc1ccccc1-c1ccc(Nc2cn(-c3c(Cl)cccc3Cl)nc2C(N)=O)cn1` [compound 344, 1-(2,6-dichlorophenyl)-4-((6-(2-methoxyphenyl)pyridin-3-yl)amino)-1H-pyrazole-3-carboxamide], for which the IC50 in experiment [1], in experiment [2] and in experiment [3] was 100 to 1000 nM in each case.

For `CC(F)(F)c1nnnn1-c1ccc(Nc2cn(-c3c(Cl)cccc3Cl)nc2C(N)=O)cn1` [compound 460, 1-(2,6-dichlorophenyl)-4-((6-(5-(1,1-difluoroethyl)-1H-tetrazol-1-yl)pyridin-3-yl)amino)-1H-pyrazole-3-carboxamide], the IC50 in experiment [1] and in experiment [4] was 100 to 1000 nM throughout.

In the case of `NC(=O)c1nn(-c2c(Cl)cccc2Cl)cc1Nc1cnn(CC(=O)N2CCOCC2)c1` [compound 461, 1-(2,6-dichlorophenyl)-4-((1-(2-morpholino-2-oxoethyl)-1H-pyrazol-4-yl)amino)-1H-pyrazole-3-carboxamide], the IC50 in experiment [1] and in experiment [4] was 10 to 100 nM throughout.

On to `COC(=O)Cn1cc(Nc2cn(-c3c(Cl)cccc3Cl)nc2C(N)=O)cn1` [compound 462, methyl_2-(4-((3-carbamoyl-1-(2,6-dichlorophenyl)-1H-pyrazol-4-yl)amino)-1H-pyrazol-1-yl)acetate], for which the IC50 in experiment [1] was in the range of 100 to 1000 nM; in experiment [4] it was 10 to 100 nM.

As to `NC(=O)c1nn(-c2c(Cl)cccc2Cl)cc1Nc1ccc(C(=O)N2CCS(=O)(=O)CC2)nc1` [compound 463, 1-(2,6-dichlorophenyl)-4-((6-(1,1-dioxidothiomorpholine-4-carbonyl)pyridin-3-yl)amino)-1H-pyrazole-3-carboxamide], the IC50 in experiment [1] was below 10 nM; in experiment [4], 10 to 100 nM.

`CC1(C)CN(C(=O)c2ccc(Nc3cn(-c4c(Cl)cccc4Cl)nc3C(N)=O)cn2)C1` [compound 464, 1-(2,6-dichlorophenyl)-4-((6-(3,3-dimethylazetidine-1-carbonyl)pyridin-3-yl)amino)-1H-pyrazole-3-carboxamide]: the figures for the IC50 in experiment [1] and in experiment [4] were 10 to 100 nM and 100 to 1000 nM, respectively.

Turning to `NC(=O)c1nn(-c2c(Cl)cccc2Cl)cc1Nc1ccc(C(=O)N2CCSCC2)cc1` [compound 467, 1-(2,6-dichlorophenyl)-4-((4-(thiomorpholine-4-carbonyl)phenyl)amino)-1H-pyrazole-3-carboxamide], the IC50 in experiment [1] and in experiment [4] was below 10 nM each time.

As for `N=S1(=O)CCN(C(=O)c2ccc(Nc3cn(-c4c(Cl)cccc4Cl)nc3C(N)=O)cc2)CC1` [compound 468, 1-(2,6-dichlorophenyl)-4-((4-(1-imino-1-oxidothiomorpholine-4-carbonyl)phenyl)amino)-1H-pyrazole-3-carboxamide], the IC50 in experiment [1] and in experiment [4] was below 10 nM each time.

On to `NC(=O)c1nn(-c2c(Cl)cccc2Cl)cc1Nc1cnn(CC(=O)N2CCS(=O)(=O)CC2)c1` [compound 469, 1-(2,6-dichlorophenyl)-4-((1-(2-(1,1-dioxidothiomorpholino)-2-oxoethyl)-1H-pyrazol-4-yl)amino)-1H-pyrazole-3-carboxamide], for which the IC50 in experiment [1] and in experiment [4] was 10 to 100 nM each time.

As for `Cc1cc2nnc(-c3ccc(Nc4cn(-c5c(Cl)cccc5Cl)nc4C(N)=O)cn3)n2c(C)n1` [compound 470, 1-(2,6-dichlorophenyl)-4-((6-(5,7-dimethyl-[1,2,4]triazolo[4,3-c]pyrimidin-3-yl)pyridin-3-yl)amino)-1H-pyrazole-3-carboxamide], the IC50 in experiment [1] and in experiment [4] was 100 to 1000 nM in each case.

`NC(=O)c1nn(-c2c(Cl)cccc2Cl)cc1Nc1ccc(-c2nnc3cccc(C(F)(F)F)n23)nc1` [compound 471, 1-(2,6-dichlorophenyl)-4-((6-(5-(trifluoromethyl)-[1,2,4]triazolo[4,3-a]pyridin-3-yl)pyridin-3-yl)amino)-1H-pyrazole-3-carboxamide]: the IC50 in experiment [1] and in experiment [4] was 100 to 1000 nM each time.

As for `Cc1cccc2ncc(-c3ccc(Nc4cn(-c5c(Cl)cccc5Cl)nc4C(N)=O)cn3)n12` [compound 473, 1-(2,6-dichlorophenyl)-4-((6-(5-methylimidazo[1,2-a]pyridin-3-yl)pyridin-3-yl)amino)-1H-pyrazole-3-carboxamide], the IC50 in experiment [1] and in experiment [4] was 10 to 100 nM throughout.

On to `Cc1csc2nnc(-c3ccc(Nc4cn(-c5c(Cl)cccc5Cl)nc4C(N)=O)cn3)n12` [compound 475, 1-(2,6-dichlorophenyl)-4-((6-(5-methylthiazolo[2,3-c][1,2,4]triazol-3-yl)pyridin-3-yl)amino)-1H-pyrazole-3-carboxamide], for which the IC50 in experiment [1] and in experiment [4] was 100 to 1000 nM each time.

`N#Cc1cccc2nnc(-c3ccc(Nc4cn(-c5c(Cl)cccc5Cl)nc4C(N)=O)cn3)n12` [compound 476, 4-((6-(5-cyano-[1,2,4]triazolo[4,3-a]pyridin-3-yl)pyridin-3-yl)amino)-1-(2,6-dichlorophenyl)-1H-pyrazole-3-carboxamide]: the results for the IC50 in experiment [1] and in experiment [4] were 100 to 1000 nM and 10 to 100 nM, respectively.
